Values quoted from earlier work, collected in patent publication US9908851B2, “2-piperidinyl substituted N,3-dihydroxybutanamides” (Duke University, priority 2013, dated 2018).
Converted amounts (≈) assume the structure as drawn.

System: N. gonorrhoeae 35/02 (drug-resistant strain)
Settings: strain 35/02; resistance profile of the strain

Compound	MIC
CO/N=C(\C(=O)N[C@@H]1C(=O)N2C(C(=O)O)=C(CSc3nc(=O)c(=O)[nH]n3C)CS[C@H]12)c1csc(N)n1 [ceftriaxone]	0.12 µg/mL (≈ 0.216 µM)
penicillin	6 µg/mL
